From ChEMBL document CHEMBL5241130, “Integrating a phenotypic screening with a structural simplification strategy to identify 4-phenoxy-quinoline derivatives to potently disrupt the mitotic localization of Aurora kinase B” (Bioorg Med Chem, 2023) come the findings set out here.

The target of assay [1] is Aurora kinase B (Homo sapiens) (UniProt Q96GD4). Description: Disruption of mitotic localization of AURKB in human RPE-MYC H2B-GFP cells assessed as induction of mitotic arrest measured after 24 hrs by fluorescence high content cell imaging analysis. The assay is classed as cell-based.
For assay [2] the target is unchanged. Description: Disruption of mitotic localization of AURKB in human RPE-MYC H2B-GFP cells assessed as induction of polyploidy by fluorescence high content cell imaging analysis. The assay is classed as cell-based.
The target is the same in assay [3]. The assay can be described thus: Disruption of mitotic localization of AURKB at the spindle mid-zone and equatorial cortex in human RPE-MYC cells expressing BCL2 at 40 nM measured after 6 hrs by immunofluorescence staining analysis. The assay is classed as cell-based.
The target is the same in assay [4]. The assay can be described thus: Disruption of mitotic localization of AURKB in human RPE-MYC cells expressing BCL2 assessed as disruption of PLK1 localization at spindle mid-zone at 40 nM measured after 6 hrs by immunofluorescence staining analysis. In kind it is cell-based.
Assay [5] has the same target. Description: Disruption of mitotic localization of AURKB in human RPE-MYC cells expressing BCL2 assessed as disruption of MKLP1 localization at spindle mid-zone at 40 nM measured after 6 hrs by immunofluorescence staining analysis. In kind it is cell-based.
The subject of another assay is NCI-H23. The assay can be described thus: Cytotoxicity against human NCI-H23 cells assessed as cell growth inhibition incubated for 3 days by MTT assay. In kind it is functional, cell-based. Conditions: time 3.0 day.
The subject of a further assay is A549. Description: Cytotoxicity against human A549 cells assessed as cell growth inhibition incubated for 3 days by MTT assay. The assay is classed as functional, cell-based. The conditions noted are these: time 3.0 day. (In general: Tetrazolium dyes change colour on reduction, which living cells bring about.)
The subject of another assay is HCT-116. The assay can be described thus: Cytotoxicity against human HCT-116 cells assessed as cell growth inhibition incubated for 3 days by MTT assay. The assay is classed as functional, cell-based. Conditions: time 3.0 day.
A further assay relates to SW480. Description: Cytotoxicity against human SW480 cells assessed as cell growth inhibition incubated for 3 days by MTT assay. The conditions noted are these: time 3.0 day. In kind it is functional, cell-based.
The test system of the next assay is MDA-MB-231. The assay can be described thus: Cytotoxicity against human MDA-MB-231 cells assessed as cell growth inhibition incubated for 3 days by MTT assay. In kind it is functional, cell-based. Conditions: time 3.0 day.
Another assay relates to HeLa. The assay can be described thus: Cytotoxicity against human HeLa cells assessed as cell growth inhibition incubated for 3 days by MTT assay. The assay is classed as functional, cell-based. Conditions: time 3.0 day.
In another assay the test system is NCI-N87. Description: Cytotoxicity against human NCI-N87 cells assessed as cell growth inhibition incubated for 3 days by MTT assay. The assay is classed as functional, cell-based. The conditions noted are these: time 3.0 day.
For assay [6], the target named is Aurora kinase B (Homo sapiens) (UniProt Q96GD4). The assay can be described thus: Disruption of mitotic localization of AURKB in human RPE-MYC H2B-GFP cells assessed as induction of mitotic arrest by fluorescence high content cell imaging analysis. The assay is classed as cell-based.
The target is the same in assay [7]. Description: Disruption of mitotic localization of AURKB in human RPE-MYC H2B-GFP cells assessed as induction of polyploidy by fluorescence high content cell imaging analysis relative to control. The assay is classed as cell-based.
The target of assay [8] is T1, Aurora kinase A (Homo sapiens) (UniProt O14965).
T1 sequence (whole entry): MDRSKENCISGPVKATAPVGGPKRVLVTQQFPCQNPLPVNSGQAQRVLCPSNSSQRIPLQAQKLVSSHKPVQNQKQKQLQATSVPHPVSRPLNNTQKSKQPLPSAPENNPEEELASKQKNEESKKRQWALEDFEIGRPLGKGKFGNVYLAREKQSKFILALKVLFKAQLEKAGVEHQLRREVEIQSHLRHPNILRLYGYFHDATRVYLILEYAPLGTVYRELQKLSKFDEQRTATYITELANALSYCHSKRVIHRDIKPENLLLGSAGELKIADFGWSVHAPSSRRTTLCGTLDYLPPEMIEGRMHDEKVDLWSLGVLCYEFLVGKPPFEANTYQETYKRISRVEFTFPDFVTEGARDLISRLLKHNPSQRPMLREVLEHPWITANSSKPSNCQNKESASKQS
Description: Inhibition of AURKA in human RPE-MYC H2B-GFP cells assessed as inhibition of autophosphorylation of AURKA at Thr288 residue at 8XMEC measured after 6 hrs by immunofluorescence staining analysis. The assay is classed as cell-based.

The target of assay [9] is Aurora kinase B (Homo sapiens) (UniProt Q96GD4). The assay can be described thus: Inhibition of AURKB in human RPE-MYC H2B-GFP cells assessed as inhibition of histone H3 phosphorylation at Ser10 residue at 8XMEC measured after 6 hrs by immunofluorescence staining analysis. The assay is classed as cell-based.

Active and inactive are the calls of the source. The calls are words filed in the database; no cut-off is given here.

Sequence of Aurora kinase B (Homo sapiens) (Q96GD4 whole entry): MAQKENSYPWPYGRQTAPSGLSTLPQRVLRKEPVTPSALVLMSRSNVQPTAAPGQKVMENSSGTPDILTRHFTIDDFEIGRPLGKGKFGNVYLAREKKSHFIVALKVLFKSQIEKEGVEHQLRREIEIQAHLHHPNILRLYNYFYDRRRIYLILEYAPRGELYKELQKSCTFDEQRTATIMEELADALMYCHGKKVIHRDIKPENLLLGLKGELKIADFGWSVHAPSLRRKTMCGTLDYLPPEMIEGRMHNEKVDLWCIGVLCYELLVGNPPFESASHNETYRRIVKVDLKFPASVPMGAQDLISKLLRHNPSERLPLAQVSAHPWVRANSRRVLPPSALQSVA

On to `COc1cc(Oc2ccnc3ccc(OC)cc23)cc(-n2cccn2)c1`, for which the MEC in assay [1] and in [2] was 0.012 µM throughout. In addition, the result (in assay [3]; in assay [4]; in [5]; in the assay on NCI-H23; in the assay with A549; with HCT-116) was Active. Also, the outcome in the assay on SW480, with MDA-MB-231, with HeLa and in the assay with NCI-N87 was Active. Besides, the outcome in assay [6] was inactive. The Activity in assay [7] is 100%. Also, the inhibition in assay [8] and in [9] was < 40% in each case.
Take `COC(=O)c1cc2c(Oc3cc(NC(C)=O)cc(OC)c3)ccnc2cc1OC`: the MEC in assay [1] and in assay [2] was 1.25 µM each time.
`COc1cc(NC(C)=O)cc(Oc2ccnc3ccccc23)c1`: the MEC in [1] and in assay [2] was 0.078 µM each time.
Regarding `O=Cc1cccc(Oc2ccnc3ccccc23)c1`, the MEC in assay [1] and in assay [2] was > 40 µM throughout.
As for `COC(=O)c1ccc(OC)c(Oc2ccnc3ccccc23)c1`, the MEC in [1] and in [2] was 0.625 µM in each case.
Regarding `COc1cc(Oc2ccnc3ccccc23)cc(C(=O)O)c1`, the MEC in [1] and in assay [2] was > 40 µM in each case.
For `COc1cc(Oc2ccnc3cc(Cl)ccc23)cc(-n2cccn2)c1`, the MEC in [1] and in assay [2] was 20 µM in each case.
Regarding `COc1cc(OC)cc(Oc2ccnc3ccccc23)c1`, the MEC in assay [1] and in assay [2] was 0.078 µM throughout.
`COC(=O)c1cc(OC)cc(Oc2ccnc3ccccc23)c1`: the MEC in [1] and in assay [2] was 0.02 µM in each case.
Consider `CCOC(=O)c1cccc(Oc2ccnc3ccccc23)c1`, for which the MEC in [1] and in [2] was 10 µM in each case.
On to `COc1cc(Oc2ccnc3cc(C(F)(F)F)ccc23)cc(-n2cccn2)c1`, for which the MEC in assay [1] and in [2] was > 40 µM each time.
Turning to `COC(=O)c1cccc(Oc2ccnc3ccccc23)c1`, the MEC in assay [1] and in assay [2] was 10 µM throughout.
Consider `COc1cc(Oc2ccnc3cc(OC)ccc23)cc(-n2cccn2)c1`, for which the MEC in [1] and in [2] was 5 µM throughout.
Consider `Nc1cccc(Oc2ccnc3ccccc23)c1`, for which the MEC in [1] and in assay [2] was 40 µM in each case.
`COc1cc(NC(C)=O)cc(Oc2ccnc3cc(OC)c(C(N)=O)cc23)c1`: the MEC in assay [1] and in assay [2] was 0.625 µM throughout.
Turning to `COc1cc(Oc2ccnc3ccc(F)cc23)cc(-n2cccn2)c1`, the MEC in [1] and in assay [2] was 0.052 µM each time.
`COc1cc(Oc2ccnc3cc(OC)c(OC)cc23)cc(-n2cccn2)c1`: the MEC in [1] and in [2] was 0.012 µM in each case. Besides, the outcome (in assay [3]; in assay [4]; in assay [5]; in the assay with NCI-H23; in the assay on A549; in the assay with HCT-116) was Active. Further, the result with SW480, with MDA-MB-231, in the assay on HeLa and in the assay on NCI-N87 was Active. Besides, in assay [6], the outcome was inactive. Moreover, the Activity in assay [7] was determined as 100%. In addition, the inhibition in [8] and in assay [9] was < 40% throughout.
For `COc1cc(NC(C)=O)cc(Oc2ccnc3cc(OC)c(OC)cc23)c1`, the MEC came out at 0.039 µM in assay [1] and 0.078 µM in assay [2].
For `COC(=O)c1cc2c(Oc3cc(OC)cc(-n4cccn4)c3)ccnc2cc1OC`, the MEC amounted to 0.039 µM in assay [1] and 0.078 µM in assay [2].
In the case of `COc1cc(Oc2ccnc3ccccc23)cc(C(F)(F)F)c1`, the MEC in assay [1] and in [2] was 1.25 µM throughout.
Regarding `O=C(NC1CCCC1)c1cccc(Oc2ccnc3ccccc23)c1`, the MEC in assay [1] and in assay [2] was > 40 µM each time.
Take `CC(=O)c1cccc(Oc2ccnc3ccccc23)c1`: the MEC in assay [1] and in [2] was 10 µM throughout.
As for `COc1cc(NC(C)=O)cc(Oc2ccnc3ccc(F)cc23)c1`, the MEC in [1] and in assay [2] was 0.01 µM in each case. For the same molecule, the outcome (in [3]; in assay [4]; in assay [5]; in the assay with NCI-H23; in the assay with A549; with HCT-116) was Active. The outcome with SW480, in the assay on MDA-MB-231, in the assay with HeLa and in the assay with NCI-N87 was Active. For the same molecule, the result in [6] was inactive. In assay [7], the Activity worked out at 100%. Besides, the inhibition in assay [8] and in [9] was < 40% in each case.
As to `COc1cccc(Oc2ccnc3ccccc23)c1`, the MEC in assay [1] and in assay [2] was 5 µM in each case.
Turning to `COc1cc(Oc2ccnc3ccccc23)cc(-c2nc(C)no2)c1`, the MEC in assay [1] and in assay [2] was 0.625 µM each time.
`c1ccc(Oc2ccnc3ccccc23)cc1`: the MEC in assay [1] and in [2] was > 40 µM in each case.
With `CNC(=O)c1cc(OC)cc(Oc2ccnc3ccccc23)c1`, the MEC came out at 0.625 µM in assay [1] and 1.25 µM in [2].
On the same counts, the results for `COc1cc(Oc2ccnc3ccccc23)cc(-n2cccn2)c1` are 0.078 µM and 0.078 µM.
With `COC(=O)c1ccc(Oc2ccnc3ccccc23)cc1`, the MEC in assay [1] and in [2] was 40 µM each time.
Turning to `COc1ccc(Oc2ccnc3ccccc23)cc1`, the MEC in assay [1] and in [2] was > 40 µM in each case.

For orientation: inhibition means the share of the control response that was lost under treatment.
